{
  "source": "patent US11370773B1",
  "about": "“Inhibiting human integrin (alpha-4) (beta-7)” (Morphic Therapeutic, Inc., priority 2019, dated 2022)",
  "data": [
    {"target": "T1, α4β7 (Homo sapiens, UniProt P13612+P26010)", "T1 construct": "α4β7 expressing cells (RPMI-8866); endogenous in cells; host or cells: RPMI 8866", "T1 sequence (P13612 34-1032)": "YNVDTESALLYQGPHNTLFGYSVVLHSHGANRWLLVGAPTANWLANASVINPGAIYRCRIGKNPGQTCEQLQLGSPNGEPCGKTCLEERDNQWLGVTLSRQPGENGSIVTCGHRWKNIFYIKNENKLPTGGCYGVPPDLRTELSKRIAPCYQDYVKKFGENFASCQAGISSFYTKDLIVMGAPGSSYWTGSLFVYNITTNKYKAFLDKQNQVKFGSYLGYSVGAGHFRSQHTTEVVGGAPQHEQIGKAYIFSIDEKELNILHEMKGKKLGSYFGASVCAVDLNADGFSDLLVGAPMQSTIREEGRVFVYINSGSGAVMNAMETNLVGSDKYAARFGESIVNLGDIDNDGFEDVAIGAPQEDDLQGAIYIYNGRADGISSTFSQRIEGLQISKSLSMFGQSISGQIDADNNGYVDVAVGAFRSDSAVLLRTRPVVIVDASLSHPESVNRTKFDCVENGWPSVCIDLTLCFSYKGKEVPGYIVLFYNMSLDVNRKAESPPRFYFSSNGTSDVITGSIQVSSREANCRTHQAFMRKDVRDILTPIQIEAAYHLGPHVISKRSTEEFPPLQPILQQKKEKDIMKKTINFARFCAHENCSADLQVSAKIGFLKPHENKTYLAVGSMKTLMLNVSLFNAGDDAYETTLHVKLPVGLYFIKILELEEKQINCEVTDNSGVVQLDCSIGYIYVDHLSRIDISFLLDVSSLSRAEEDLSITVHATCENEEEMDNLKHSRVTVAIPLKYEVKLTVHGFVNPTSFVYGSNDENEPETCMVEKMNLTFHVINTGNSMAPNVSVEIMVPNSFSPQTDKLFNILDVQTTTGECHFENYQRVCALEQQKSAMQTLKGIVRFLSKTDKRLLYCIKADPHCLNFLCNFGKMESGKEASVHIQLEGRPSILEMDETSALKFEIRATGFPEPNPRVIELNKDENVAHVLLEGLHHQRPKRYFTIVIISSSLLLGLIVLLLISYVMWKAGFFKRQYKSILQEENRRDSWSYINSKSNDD", "T1 sequence (P26010 20-798)": "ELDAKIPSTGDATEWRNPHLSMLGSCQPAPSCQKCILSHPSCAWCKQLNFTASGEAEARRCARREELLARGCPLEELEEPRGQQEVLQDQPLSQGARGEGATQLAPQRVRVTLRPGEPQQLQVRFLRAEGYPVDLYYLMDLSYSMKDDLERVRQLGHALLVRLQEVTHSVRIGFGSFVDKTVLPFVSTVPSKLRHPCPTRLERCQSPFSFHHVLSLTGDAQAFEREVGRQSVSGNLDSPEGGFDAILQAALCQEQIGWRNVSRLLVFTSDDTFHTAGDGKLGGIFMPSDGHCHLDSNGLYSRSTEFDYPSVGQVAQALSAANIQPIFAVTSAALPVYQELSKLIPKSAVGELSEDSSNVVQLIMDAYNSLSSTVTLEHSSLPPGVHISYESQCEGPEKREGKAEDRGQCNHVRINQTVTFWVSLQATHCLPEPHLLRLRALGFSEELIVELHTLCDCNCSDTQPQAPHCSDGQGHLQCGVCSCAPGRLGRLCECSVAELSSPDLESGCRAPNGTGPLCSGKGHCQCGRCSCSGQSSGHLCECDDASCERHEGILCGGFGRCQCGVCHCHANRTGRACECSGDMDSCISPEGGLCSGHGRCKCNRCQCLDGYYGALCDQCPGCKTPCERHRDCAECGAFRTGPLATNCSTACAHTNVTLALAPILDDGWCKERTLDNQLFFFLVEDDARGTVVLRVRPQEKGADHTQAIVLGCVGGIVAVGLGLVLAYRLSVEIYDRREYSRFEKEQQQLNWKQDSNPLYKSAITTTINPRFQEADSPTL", "experiment": "Cell-based ligand binding assay (LBA), RPMI 8866 cells in competition with soluble MAdCAM-1-Fc", "settings": "MAdCAM-1-Fc Dylight 650, flow cytometry, read-out: LB Assay (Example 6) IC50", "method": "Three in vitro assays were used to examine the α4β7 mechanistic process used by cells: 1) ligand:receptor affinity, 2) the avidity of those interactions on a cell's surface, and 3) how those interactions fare under an imposing force. In Example 5, a Fluorescence Polarization (FP) assay is used to measure compound activity through binding competition with the fluorescein-labeled peptide. In Example 6, the potency of compounds against α4β7 is measured in the cell-based ligand binding assay (LBA), using RPMI 8866 cells incubated with the compound samples in competition with soluble MAdCAM-1 ligand. In Example 7, activity of compounds is evaluated in a cell adhesion assay that mechanistically tests what occurs in vivo when trafficking cells utilize α4β7 to adhere to MAdCAM-1 expressing HEVs of the gut during the extravasation process. In the cell adhesion assay of Example 7, a MAdCAM1-(Fc) is coated on plastic, and α4β7 expressing cells (RPMI-8866) are allowed to adhere to the coated surface in the presence of the test compounds. Next, the force of washing with buffer is applied to cells thereby testing the strength of that adhesion. Unattached cells are removed and the remaining adherent cells are quantified.\n5 ul of 33 nM MAdCAM-1-Fc fluorescently labeled with Dylight 650 in 50 mM HEPES pH 7.3, 150 mM sodium chloride, and 1% bovine serum albumin was added to the cells. The samples were incubated for 45 minutes at room temperature, fixed with 0.8% formaldehyde for 30 minutes at room temperature, and washed with 50 mM Tris pH 7.5, 150 mM NaCl, 1 mM EDTA, and 1% bovine serum albumin. Fluorescence intensity for each cell was measured via flow cytometry. Dead cells were excluded from further analysis based on staining with the 780 fixable viability dye. Median fluorescence intensity for Dylight 650 was determined for each sample and concentration-response curves were analyzed for IC50 values using 4-parameter non-linear regression analysis.", "units": {"IC50": "nM"}, "values": [
      {"smiles": "Cc1cc(C)c(-c2cc(C(F)(F)F)c(F)c([C@H](CC(=O)O)NC(=O)[C@H](CC(C)C)n3cc(CCCN(C)C)c(C(F)(F)F)cc3=O)c2F)c(C)c1", "note": "[HZ-P2, (3S)-3-(2,4-difluoro-2′,4′,6′-trimethyl-5-(trifluoromethyl)biphenyl-3-yl)-3-(2-(5-(3-(dimethylamino)propyl)-2-oxo-4-(trifluoromethyl)pyridin-1(2H)-yl)-4-methylpentanamido)propanoic Acid]", "IC50": "10 to 500"},
      {"smiles": "Cc1cc(C)c(-c2cc(C3CC3)c(F)c([C@H](CC(=O)O)NC(=O)[C@H](CC(C)C)n3cc(CCN4CCC4)c(C(F)(F)F)cc3=O)c2F)c(C)c1", "note": "[HM-P2, (3S)-3-(2-(5-(2-(azetidin-1-yl)ethyl)-2-oxo-4-(trifluoromethyl)pyridin-1(2H)-yl)-4-methylpentanamido)-3-(5-cyclopropyl-2,4-difluoro-2′,4′,6′-trimethylbiphenyl-3-yl)propanoic Acid]", "IC50": "≤ 10"},
      {"smiles": "Cc1cc(F)c(C)c(C)c1-c1cc(C(F)(F)F)c(F)c([C@H](CC(=O)O)NC(=O)[C@H](CC(C)C)n2cc(CCN3CCC3)c(C(F)(F)F)cc2=O)c1F", "note": "[KT-P2, (3S)-3-(2-(5-(2-(azetidin-1-yl)ethyl)-2-oxo-4-(trifluoromethyl)pyridin-1(2H)-yl)-4-methylpentanamido)-3-(2,4,4′-trifluoro-2′,3′,6′-trimethyl-5-(trifluoromethyl)-[1,1′-biphenyl]-3-yl)propanoic Acid]", "IC50": "10 to 500"},
      {"smiles": "Cc1cc(C)c(-c2cc(C(F)(F)F)c(F)c([C@H](CC(=O)O)NC(=O)[C@H](CC(C)C)n3cc(CCN(C)C)c(C(F)(F)F)cc3=O)c2F)c(C)c1", "note": "[IF-P2, (3S)-3-(2,4-difluoro-2′,4′,6′-trimethyl-5-(trifluoromethyl)-[1,1′-biphenyl]-3-yl)-3-(2-(5-(2-(dimethylamino)ethyl)-2-oxo-4-(trifluoromethyl)pyridin-1(2H)-yl)-4-methylpentanamido)propanoic Acid]", "IC50": "10 to 500"},
      {"smiles": "Cc1cc(-c2c(C)ccc(F)c2C)cc([C@H](CC(=O)O)NC(=O)C(CC(C)C)n2cc(CCN3CCC3)c(C(F)(F)F)cc2=O)c1F", "note": "(single isomer, unassigned) [AF-P2]", "IC50": "≤ 10"},
      {"smiles": "Cc1cc(C)c(-c2cc(C(F)(F)F)c(F)c([C@H](CC(=O)O)NC(=O)[C@H](CC(C)C)n3cc(CCN4CCC4)c(C(F)(F)F)cc3=O)c2F)c(C)c1", "note": "[IG-P2, (3S)-3-(2-(5-(2-(azetidin-1-yl)ethyl)-2-oxo-4-(trifluoromethyl)pyridin-1(2H)-yl)-4-methylpentanamido)-3-(2,4-difluoro-2′,4′,6′-trimethyl-5-(trifluoromethyl)biphenyl-3-yl)propanoic Acid]", "IC50": "10 to 500"},
      {"smiles": "Cc1ccn([C@@H](NC(C)C)C(=O)N[C@@H](CC(=O)O)c2cncc(-c3c(C)cccc3C)c2)c(=O)c1", "note": "[Example C-7, reference compound]", "IC50": "≤ 10"},
      {"smiles": "Cc1cc(-c2c(C)cc(F)cc2C)cc([C@H](CC(=O)O)NC(=O)[C@H](CC(C)C)n2cc(CCN(C)C)cc(C(F)F)c2=O)c1F", "note": "[I-P2, (3S)-3-(4,4′-difluoro-2′,5,6′-trimethyl-[1,1′-biphenyl]-3-yl)-3-(2-(3-(difluoromethyl)-5-(2-(dimethylamino)ethyl)-2-oxopyridin-1(2H)-yl)-4-methylpentanamido)propanoic Acid]", "IC50": "≤ 10"},
      {"smiles": "Cc1cc(C2CC2)cc(C)c1-c1cc(C(F)(F)F)c(F)c([C@H](CC(=O)O)NC(=O)[C@H](CC(C)C)n2cc(CCCN(C)C)c(C(F)(F)F)cc2=O)c1F", "note": "[HU-P2, (3S)-3-(4′-cyclopropyl-2,4-difluoro-2′,6′-dimethyl-5-(trifluoromethyl)-[1,1′-biphenyl]-3-yl)-3-(2-(5-(3-(dimethylamino)propyl)-2-oxo-4-(trifluoromethyl)pyridin-1(2H)-yl)-4-methylpentanamido)propanoic Acid]", "IC50": "10 to 500"},
      {"smiles": "Cc1ccn([C@@H](CC(C)C)C(=O)N[C@H](CC(=O)O)c2cncc(-c3c(C)cccc3C)c2)c(=O)c1", "note": "[Example C-28, reference compound]", "IC50": "10 to 500"},
      {"smiles": "Cc1cc(F)cc(C)c1-c1cc(C(F)(F)F)c(F)c([C@H](CC(=O)O)NC(=O)[C@H](CC(C)C)n2cc(CCCN(C)C)c(C(F)(F)F)cc2=O)c1F", "note": "[HW-P2, (3S)-3-(2-(5-(3-(dimethylamino)propyl)-2-oxo-4-(trifluoromethyl)pyridin-1(2H)-yl)-4-methylpentanamido)-3-(2,4,4′-trifluoro-2′,6′-dimethyl-5-(trifluoromethyl)-[1,1′-biphenyl]-3-yl)propanoic Acid]", "IC50": "≤ 10"},
      {"smiles": "Cc1cc(C)c(-c2cc(C)c(F)c([C@H](CC(=O)O)NC(=O)[C@H](CC(C)C)n3cc(CCCN(C)C)c(C(F)(F)F)cc3=O)c2F)c(C)c1F", "note": "[IW-P2, (3S)-3-(2-(5-(3-(dimethylamino)propyl)-2-oxo-4-(trifluoromethyl)pyridin-1(2H)-yl)-4-methylpentanamido)-3-(2,3′,4-trifluoro-2′,4′,5,6′-tetramethyl-[1,1′-biphenyl]-3-yl)propanoic Acid]", "IC50": "10 to 500"},
      {"smiles": "Cc1ccc(F)c(C)c1-c1cc(C2CC2)c(F)c([C@H](CC(=O)O)NC(=O)[C@H](CC(C)C)n2cc(CCN3CCC3)c(C(F)(F)F)cc2=O)c1F", "note": "[HH-P2, (3S)-3-(2-(5-(2-(azetidin-1-yl)ethyl)-2-oxo-4-(trifluoromethyl)pyridin-1(2H)-yl)-4-methylpentanamido)-3-(5-cyclopropyl-2,3′,4-trifluoro-2′,6′-dimethyl-[1,1′-biphenyl]-3-yl)propanoic Acid]", "IC50": "≤ 10"}
    ]}
  ]
}
